Laboratory results as given in BindingDB's records for doi:10.1021/jm100470t (Ume&#163, 2010).

Experiment: Inhibition of Escherichia coli UTI89 PapD chaperon assessed as inhibition of biofilm formation

Row | IC50 | Structure (SMILES)
1 | 61 µM | O=C(O)c1c(-c2ccco2)sc2c(C3CC3)c(Cc3cccc4ccccc34)cc(=O)n12
2 | 39 µM | CS(=O)(=O)NC(=O)c1c(-c2ccccc2)sc2c(C3CC3)c(Cc3cccc4ccccc34)cc(=O)n12
3 | 90 µM | Cc1sc2c(C3CC3)c(Cc3cccc4ccccc34)cc(=O)n2c1C(=O)O
4 | 304 µM | CC(C)(O)c1sc2c(C3CC3)c(Cc3cccc4ccccc34)cc(=O)n2c1C(=O)O
5 | 13 µM | Cc1ccc(-c2sc3c(C4CC4)c(Cc4cccc5ccccc45)cc(=O)n3c2C(=O)O)cc1
6 | 25 µM | O=C(O)c1c(-c2ccsc2)sc2c(C3CC3)c(Cc3cccc4ccccc34)cc(=O)n12
7 | 78 µM | O=C(O)c1c(-c2ccoc2)sc2c(C3CC3)c(Cc3cccc4ccccc34)cc(=O)n12
8 | 11 µM | Cc1cccc(-c2sc3c(C4CC4)c(Cc4cccc5ccccc45)cc(=O)n3c2C(=O)O)c1
9 | 7 µM | O=C(O)c1c(Cc2ccccc2)sc2c(C3CC3)c(Cc3cccc4ccccc34)cc(=O)n12
10 | 159 µM | O=C(Nc1ccccc1)c1sc2c(C3CC3)c(Cc3cccc4ccccc34)cc(=O)n2c1C(=O)O
11 | 11 µM | O=C(O)c1c(-c2ccccc2)sc2c(C3CC3)c(Cc3cccc4ccccc34)cc(=O)n12
